In US4604378A, “Basic V1 -vasopressin antagonists” (SmithKline Beckman Corporation, priority 1984, dated 1986):
*1 amine or outer side, *2 acyl side, *3 side chain or, on linkers, in order; H or OH if unused. Where a SMILES comes first, the peptide text is derived from it. Bridges are numbered along the chain shown (N, C = ends). [ ]: non-standard residue; d: D form. The star is where a group is joined. X1 = CC(C)(CC(=O)[*:1])S[*:2]; NH(CH2)4NH2 = NCCCCN*; Mpa = O=C(O)CCS

What was measured:
[1] = molecular target: T1, V2 -vasopressin receptors (Sus scrofa, UniProt P32307); assay: V2-vasopressin receptor binding, inhibition of 3H-LVP binding, medullary pig kidney tissue
T1 construct: Medullary pig kidney tissue; from tissue; host or cells: medullary pig (hog) kidney tissue
T1 sequence (P32307 whole entry): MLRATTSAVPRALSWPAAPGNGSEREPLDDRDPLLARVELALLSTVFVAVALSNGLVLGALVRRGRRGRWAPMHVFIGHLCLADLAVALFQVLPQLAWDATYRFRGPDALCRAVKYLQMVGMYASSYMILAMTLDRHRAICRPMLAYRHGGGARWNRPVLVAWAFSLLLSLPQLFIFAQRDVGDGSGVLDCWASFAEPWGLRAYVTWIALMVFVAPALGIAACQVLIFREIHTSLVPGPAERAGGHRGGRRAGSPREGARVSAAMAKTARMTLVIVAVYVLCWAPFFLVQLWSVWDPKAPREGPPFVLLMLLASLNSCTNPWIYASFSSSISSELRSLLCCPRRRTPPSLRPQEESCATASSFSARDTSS
Procedure: (§1) Antagonistic activity at the V1 -vasopressin receptors is determined in a protocol which measures the reversal of the vasopressin-induced contraction of rat thoracic aorta tissue. This is expressed as KB (nM) in the table below. Such anti-pressor activity is confirmed in a similar in vitro protocol using binding to the plasma membranes of rat liver. V2 -vasopressin antagonism is determined as receptor binding ability measured by inhibition of 3H-LVP binding (KB as nM), by inhibition of adenylate cyclase activation by vasopressin in the medullary tissue of hog kidneys (Ki as nM) or in vivo in the hydropenic rat protocol (ED300 μg/kg. These procedures are described in the literature: F. Stassen et al., J. Pharmacology and Experimental Therapeutics, 223 50 (1982); F. Stassen et al., lst International Conference on Diuretics, Miami, Fla., Mar. (1984). Antagonistic activity at oxytocin receptors is determined in the isolated rat uterus protocol: W. Sawyer, et al., Endocrinology 106 81 (1979); P. Melin, et al., J. of Endocrinology 88 173 (1981).
^a Medullary pig kidney tissue, […]

oxytocin receptors = molecular target: T2, oxytocin receptors (Rattus norvegicus, UniProt P70536); assay: Isolated rat uterus protocol, oxytocin antagonism; type: cell-based; settings: read-out: Rat OXT KB
T2 construct: Rat uterus; from tissue; host or cells: isolated rat uterus
T2 sequence (P70536 1-388): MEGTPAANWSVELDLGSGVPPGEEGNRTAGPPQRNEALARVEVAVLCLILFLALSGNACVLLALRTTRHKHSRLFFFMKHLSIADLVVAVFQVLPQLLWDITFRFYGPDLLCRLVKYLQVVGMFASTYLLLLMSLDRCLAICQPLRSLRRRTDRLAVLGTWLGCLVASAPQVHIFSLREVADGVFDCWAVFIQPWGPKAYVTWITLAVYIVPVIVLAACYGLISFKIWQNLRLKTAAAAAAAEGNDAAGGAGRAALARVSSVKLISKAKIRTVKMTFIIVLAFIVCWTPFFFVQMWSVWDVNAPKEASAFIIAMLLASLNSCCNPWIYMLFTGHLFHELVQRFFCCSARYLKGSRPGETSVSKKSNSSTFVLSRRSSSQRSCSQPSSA
Procedure: as §1

[2] = molecular target: T3, V1 -vasopressin receptors (Rattus norvegicus, UniProt P30560); assay: Reversal of vasopressin-induced contraction of rat thoracic aorta tissue; type: cell-based; settings: rat aortic ring tissue
T3 construct: Rat liver membrane; from tissue; host or cells: rat liver plasma membranes
T3 sequence (P30560 whole entry): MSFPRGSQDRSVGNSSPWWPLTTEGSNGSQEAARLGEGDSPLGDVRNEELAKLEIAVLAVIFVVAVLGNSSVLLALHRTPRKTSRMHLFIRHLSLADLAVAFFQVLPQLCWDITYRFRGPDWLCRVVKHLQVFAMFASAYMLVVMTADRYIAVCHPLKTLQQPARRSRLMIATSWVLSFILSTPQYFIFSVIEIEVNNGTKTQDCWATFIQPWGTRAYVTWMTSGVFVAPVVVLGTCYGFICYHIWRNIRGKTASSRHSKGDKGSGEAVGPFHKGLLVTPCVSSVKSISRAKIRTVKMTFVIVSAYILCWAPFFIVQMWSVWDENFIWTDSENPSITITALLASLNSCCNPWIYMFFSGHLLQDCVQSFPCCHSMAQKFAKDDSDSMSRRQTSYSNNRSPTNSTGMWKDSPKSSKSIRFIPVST
Procedure: as §1
^c Rat aortic ring tissue, […]

`CCOc1ccc(C[C@@H]2NC(=O)CCSSC[C@@H](C(=O)N[C@@H](CCCNC(=N)N)C(=O)NCC(N)=O)NC(=O)[C@H](CC(N)=O)NC(=O)[C@H]([C@@H](C)O)NC(=O)[C@H]([C@@H](C)CC)NC2=O)cc1` [D] ([Mpa]Y(Et)ITNCRG-NH2; disulfide 1-6) was tested, and the Kb [1] was 4.1 µM and the Kb (oxytocin receptors) was 17.7 nM.
Compound `COc1ccc(C[C@@H]2NC(=O)CC(C)(C)SSC[C@@H](C(=O)N3CCC[C@H]3C(=O)NCCCCN)NC(=O)[C@H](CC(N)=O)NC(=O)[C@H](CCC(N)=O)NC(=O)[C@H](Cc3ccccc3)NC2=O)cc1` [A] (Y(Me)FQNCP-{NH(CH2)4NH2}; linker N-5 via X1) has a Kb [1] of 8.6 µM, a Kb [2] of 1.21 nM and a Kb (oxytocin receptors) of 5.91 nM.
`CCOc1ccc(C[C@H]2NC(=O)CCSSC[C@@H](C(=O)N3CCC[C@H]3C(=O)NCCCCN)NC(=O)[C@H](CC(N)=O)NC(=O)[C@H]([C@@H](C)O)NC(=O)[C@H]([C@@H](C)CC)NC2=O)cc1` [C] ([Mpa][dY](Et)ITNCP-{NH(CH2)4NH2}; disulfide 1-6) gave a Kb [1] of 5.7 µM and a Kb (oxytocin receptors) of 1.6 nM.
`CCOc1ccc(C[C@@H]2NC(=O)CCSSC[C@@H](C(=O)N[C@@H](CCCNC(=N)N)C(N)=O)NC(=O)[C@H](CC(N)=O)NC(=O)[C@H]([C@@H](C)O)NC(=O)[C@H]([C@@H](C)CC)NC2=O)cc1` [E] ([Mpa]Y(Et)ITNCR-NH2; disulfide 1-6) was tested, and the Kb [1] was 1.6 µM and the Kb (oxytocin receptors) was 11.4 nM.
